What all share (format): cell-based
Common to all, as to conditions: five days, read-out: EC50 (free linker-drug, without antibody)

Assay [1] has as its system Parental UACC-257X2.2 cells. Kind of assay: In vitro cell proliferation (CellTiter-Glo), parental cells. Here is the method:
(§1) In vitro cell proliferation of the cell lines in the presence of the immunoconjugates was assessed. Cells were plated at 1,500 cells per well in 50 μL of normal growth medium in 96-well clear-bottom plates. Twenty-four hours later, an additional 50 μL of culture medium with serial dilutions of immunoconjugates (ch5E9-vc-MMAE or control anti-gD-vc-MMAE) were added to triplicate wells. Five days later, cell survival was determined using CellTiter-Glo Luminescent Cell Viability Reagent (G7572, Promega Corporation, Madison, Wis.) using an EnVision 2101 Mutilabel Reader (Perkin-Elmer, Waltham, Mass.).

For assay [2], the system named is In vivo-derived resistant UACC-257X2.2 cells. Kind of assay: In vitro cell proliferation (CellTiter-Glo), in vivo-derived resistant cells. The protocol: Tumor #359 was harvested and the cells were dissociated for growth in vitro (referred to herein as in vivo-derived resistant UACC-257X2.2 cells).
(§2) In vivo- and in vitro-derived resistant UACC-257X2.2 cells were then assayed for sensitivity to increasing concentrations of anti-ETBR-vc-MMAE.
as §1
In general terms: ATP-based viability assays read luminescence as a measure of living cells.

Assay [3] concerns In vitro-derived resistant UACC-257X2.2 cells. The experiment in a line: In vitro cell proliferation (CellTiter-Glo), in vitro-derived resistant cells. The protocol: For resistance developed in vitro, UACC-257X2.2 cells were adapted to increasing concentrations of anti-ETBR-vc-MMAE in culture dishes over the course of two months.
as §2, §1

The structures appear in SMILES notation. Starred links: 1 amine or outer side, 2 acyl side, 3 side chain; linkers in the order of their positions; H or OH if unused. Non-standard residues stand in square brackets, D forms with d. Residues, ends and D or L forms follow the SMILES beside them. *: point of attachment. Dolaproine = CO[C@@H]([C@@H]1CCCN1)[C@@H](C)C(=O)O; Hexanoyl(6-maleimido) = O=C1C=CC(=O)N1CCCCCC(=O)*; Dil = CC[C@H](C)[C@H](NC)[C@@H](CC(=O)O)OC; PABC = O=C(OCc1ccc(N[*:1])cc1)[*:2]; X1 = C[C@@H](N*)[C@@H](O)c1ccccc1; Cit = NC(=O)NCCC[C@H](N)C(=O)O; NMeV = CN[C@H](C(=O)O)C(C)C

For orientation: EC50 means the concentration that produces a half-maximal response. Turning to `CC[C@H](C)[C@@H]([C@@H](CC(=O)N1CCC[C@H]1[C@H](OC)[C@@H](C)C(=O)N[C@H](C)[C@@H](O)c1ccccc1)OC)N(C)C(=O)[C@@H](NC(=O)[C@H](C(C)C)N(C)C(=O)OCc1ccc(NC(=O)[C@H](CCCNC(N)=O)NC(=O)[C@@H](NC(=O)CCCCCN2C(=O)C=CC2=O)C(C)C)cc1)C(C)C` [MC-vc-PAB-MMAE] ({Hexanoyl(6-maleimido)}-V[Cit][PABC][NMeV]V[Dil][Dolaproine]-X1), the EC50 in assay [1] was determined as 0.28 nM; in assay [2] it was 0.77 nM; in assay [3], 3.5 nM.

Values taken from patent US9463251B2, “Anti-ETBR antibodies and immunoconjugates” (Genentech, Inc., priority 2012, dated 2016).
